Entries after “also recorded” stand apart in the source; their conditions may differ. A value given as a limit tells only on which side of the number the result lay.

We go through eight molecules from patent US5964224A, “Method for treating amyotrophic lateral sclerosis and a therapeutic agent therefor” (priority 1997, dated 1999).

Data set [1] deals with patients with ALS. As to conditions: cited from earlier work; for beneficial effects in ALS: anecdotal or preliminary observations; for potency in improving the clinical symptoms or prolonging life: patients with ALS.
The test system of data set [2] is patients with ALS. The data set is described as follows: Double-blind trial: averaged compound muscle action potential (CMAP) amplitudes in ALS patients, ultra-high versus low dose i.m. The format is in vivo, human. As to the method: (§1) To develop a symptomatic treatment for amyotrophic lateral sclerosis, I have compared the effects of ultra-high dose and low dose (25 mg/day and 0.5 mg/day, i.m. for 14 days) of methylcobalamin on the averaged compound muscle action potential amplitudes, which serve as an index of muscle power, in a double-blind trial.
(§2) […] were recorded bilaterally from the abductor pollicis brevis, abductor digiti minimi and abductor hallucis muscles after stimulation of the median, ulnar and tibial nerves at the wrist or at the ankle. Amplitudes were measured from the baseline to the negative peak. In each patient, the average amplitude from the six muscles (averaged CMAPs) served as an index of the number of muscle fibers innervated by spinal motoneurons. The method employed was that of Kelly et al.[Muscle Nerve 10, 471-179 (1990)] and Kimura [in Electrodiagnosis in diseases of nerve and muscle: principles and practice, 2nd edition, F. A. Davis ed.(1989), pages 85-87], the disclosures of which are incorporated herein by reference.
(§3) A total of 24 ALS patients without respiratory failure entered the study after giving an informed consent for the protocol approved by the Institutional Review Board. Twelve of them (High Dose Group; age 45-66 years, 5 men) received the ultra-high dose (25 mg/day or 360-610 μg/kg/day, i.m.) methylcobalamin and the other 12 (Low Dose Group; age 41-66 years, 6 men) received the low dose (0.5 mg/day or […],i.m.) as a control. The two groups were matched for age, disease durations (19.6±4.1 versus 21.7±3.2 months) and initial averaged CHAP amplitudes (5.27±0.84 versus 4.48±0.91 mV). The patients were blinded as to the dose. The examiner, who was not informed of the dose, measured CMAPs immediately before starting methylcobalamin (day 1), at the end of 2 weeks of administration (day 14) and at 4 weeks after the start (day 28).

Data set [3] relates to patients with ALS. The data set is described as follows: Clinical symptoms (gait, weakness) and duration of benefit in ALS patients. The format is in vivo, human. As to the method:
as §3

For data set [4], the system named is patients with ALS. The data set is described as follows: Adverse reactions in ALS patients (clinical trial). The format is in vivo, human. As to the method:
as §1, §3

Data set [5] concerns patients with ALS. The data set is described as follows: Averaged CMAP amplitudes before and after treatment in ALS patients, 0.5 mg/day i.v., 15 mg/day i.v. and 25 mg/day i.m. groups. The format is in vivo, human. As to the method:
as §2
CMAP amplitudes were averaged in 10 patients with ALS treated with a low dose of methycobalamin (0.5 mg/day i.v. for 2 weeks). Those before the treatment and those 2 weeks after the completion of the treatment were compared.
CMAP amplitudes were averaged in 12 patients with ALS treated with a high dose of methylcobalamin (15 mg/day i.v. for 2 weeks). Those before the treatment, those at the end of the treatment and those 2 weeks after the completion of the treatment were compared.
CMAP amplitudes were averaged in 12 patients with ALS treated with an ultra-high dose of methylcobalamin (25 mg/day i.m. for 2 weeks). Those before the treatment, those at the end of the treatment and those 2 weeks after the completion of the treatment were compared.
The ratio of averaged CMAP amplitudes at 2 weeks after the completion of the treatment (after 4 wks) was compared with those before the treatment.

The test system of a further data set is patient with ALS. In words: Time course of averaged CMAP amplitude in a patient with ALS given 50 mg/day. The format is in vivo, human. As to conditions: day 0 through 13, one patient. The method, then:
as §2
These clinical benefits and improved CMAPs usually lasted for 1-3 months, then followed by deterioration. […] Serial changes of averaged CMAP amplitudes in low dose (0.5 mg/day i.m., n=12) group and high dose (25 mg/day i.m., n=12) group were examined. Methylcobalamin was given during day 0 through day 13. […] The time course of averaged CMAP amplitude changes in a patient with ALS who was given 50 mg/day of methylcobalamin during day 0 day through 13 was examined.

The next data set concerns rats. As to conditions: 0.5, 5.0 and 20.0 mg/kg/day i.p., 30 days; cited from earlier work.
Data set [6] deals with beagles. As to conditions: 90 days, cited from earlier work.
The test system of data set [7] is rat. As to conditions: same doses as subacute, 6 months; cited from earlier work.
For data set [8], the system named is beagles. As to conditions: 50.0 mg/kg/day, 6 months, cited from earlier work.
The subject of data set [9] is rat. As to conditions: 20 mg/kg/day i.p. (organogenesis) or 50 mg/kg i.v. (pre-gestation to postnatal); cited from earlier work.
The subject of another data set is mouse. As to conditions: 20 mg/kg/day i.p., organogenesis; cited from earlier work.
The test system of the next data set is rabbit. As to conditions: 50 mg/kg/day, organogenesis; cited from earlier work.
A further data set has as its system animals. As to conditions: cited from earlier work.
For data set [10] the following is noted: degraded into hydoxycobalamin; cited from earlier work.
For data set [11] the following is noted: intramuscular versus intravenous route; cited from earlier work.
Setting [12] is: High Dose Group, 25 mg/day i.m., n=12.

Turning to `O=P1(N(CCCl)CCCl)NCCCO1` (stereo not shown) [cyclophosphamide], the “beneficial effects in ALS” value with patients with ALS [1] is recorded as “beneficial effects”.

In the case of `COc1ccc2c(c1)[C@]13CCCC[C@@H]1[C@H](C2)N(C)CC3` [dextromethorphan], the “potency in improving the clinical symptoms or prolonging life” value (shortened to “potency”) with patients with ALS [1] is “not yet convincingly shown their potency”.

As to `C/C1=C2/[N-][C@H]([C@H](CC(N)=O)[C@@]2(C)CCC(=O)NC[C@@H](C)OP(=O)([O-])O[C@H]2[C@@H](O)[C@@H](n3cnc4cc(C)c(C)cc43)O[C@@H]2CO)[C@]2(C)N=C(/C(C)=C3N=C(/C=C4N=C1[C@@H](CCC(N)=O)C\4(C)C)[C@@H](CCC(N)=O)[C@]\3(C)CC(N)=O)[C@@H](CCC(N)=O)[C@]2(C)CC(N)=O.[CH3-].[Co+3]` [methylcobalamin], in the data set on patients with ALS [2] (25 mg/day and 0.5 mg/day i.m., n=12 each), the “ratio of averaged CMAP amplitude at day 14 or day 28 to that at day 0” value is on record as “only the high dose group showed a significant increase in the ratio at day 28”. Moreover, the “change in averaged CMAP amplitude” value is listed as “not at 2 weeks” with patients with ALS [2] (25 mg/day i.m., at 2 weeks (day 14)); “No significant changes in CMAP amplitude” in the data set on patients with ALS [2] (low dose 0.5 mg/day i.m. for 14 days, at 2 or 4 weeks); “no significant changes in CMAP amplitude” in the data set with patients with ALS [2] (low dose 0.5 mg/day i.m. for 14 days, at 2 or 4 weeks, listed as Methylcobalamin); “significant increase at 4 weeks; also recorded: increase of averaged CMAP amplitudes at day 28” with patients with ALS [2] (ultra-high dose 25 mg/day i.m. for 14 days, at 4 weeks (day 28)); “significant increase at 4 weeks” in the data set with patients with ALS [2] (ultra-high dose 25 mg/day i.m. for 14 days, at 4 weeks (day 28), listed as Methylcobalamin); “No significant changes were found” with patients with ALS [5] (0.5 mg/day i.v. for 2 weeks, 10 patients, 2 weeks after completion vs before). The “change in averaged CMAP amplitude” value was “tendency toward increase of CMAPs at 2 weeks after the completion of the treatment, no statistically significant differences were found” in the data set with patients with ALS [5] (15 mg/day i.v. for 2 weeks, 12 patients, before, end, 2 weeks after completion) and “statistically significant increase of CMAPs at 2 weeks after the completion of the treatment” in the data set with patients with ALS [5] (25 mg/day i.m. for 2 weeks, 12 patients, 2 weeks after completion). The “CMAP amplitude ratio between day zero and day 28, High Dose versus Low Dose Group” value with patients with ALS [2] (25 mg/day versus 0.5 mg/day i.m.) is recorded as “significantly higher ratio than Low Dose Group”. In addition, in the data set with patients with ALS [2] (15-500 mg/day, i.m., s.c. or i.v. for 14 days, low dose as control (summary statement)), the “parameter of muscle power (CMAPs)” value was “significantly increases the parameter of muscle power”. The subjective weakness entry in the data set on patients with ALS [3] (15-500 mg/day, i.m., s.c. or i.v. for 14 days (summary statement)) was “improves the subjective weakness”. Further, in the data set with patients with ALS [3] (setting [12]), the “improvement in gait and weakness” value is “Two patients in High Dose Group noted an improvement in gait and weakness”. The “duration of clinical benefits and improved CMAPs” value in the data set with patients with ALS [3] (High Dose Group, 25 mg/day i.m., then followed by deterioration) was 1-3 months. Further, in the data set on patients with ALS [3] (ultra-high dose, ALS patients), the “improvement of clinical symptoms and objective clinical measure” value is “improvement of both clinical symptoms and an objective clinical measure”. In addition, the “adverse reactions: elevation of serum GOT and GPT” value with patients with ALS [4] (setting [12]) was “mild elevation of serum GOT and GPT in another”. Further, the “adverse reactions: skin rash” value in the data set on patients with ALS [4] (setting [12]) is on record as “skin rash in one patient”. In addition, the “duration of adverse reactions (skin rash; GOT/GPT elevation)” value in the data set on patients with ALS [4] (High Dose Group, 25 mg/day i.m., both) was “about a week”. In addition, the major side effects entry is “No major side effects were seen” in the data set on patients with ALS [4] (clinical trial, 25 mg/day and 0.5 mg/day i.m. for 14 days); “no major side effects have been observed” with animals (50 mg/kg/day, animals). Moreover, the “ratio of averaged CMAP amplitudes 2 weeks after completion to before treatment, ultra-high versus low dose group” value with patients with ALS [5] (25 mg/day i.m. versus 0.5 mg/day i.v., 2 weeks, FIG. 1) was “statistically significant difference”. Further, the “p value, ratio of averaged CMAP amplitudes between groups” value in the data set with patients with ALS [5] (25 mg/day i.m. versus 0.5 mg/day i.v., unpaired t-test) is less than 0.05. For the same molecule, the “time course of averaged CMAP amplitude” value in the data set with patient with ALS is “abrupt increase of the amplitude during and after the treatment”. Also, the “general conditions, body weight, blood and urine chemistry, organ weights and histological findings” value in the data set with rats is “no significant changes in the general conditions, body weight, blood and urine chemistry, organ weights and histological findings”. Moreover, the epididymis findings result in the data set with beagles [6] (50.0 mg/kg/day i.v., a dog) is “No changes were noted in the epidydimis”. Moreover, the “histological finding in the kidney” value in the data set on beagles [6] (50.0 mg/kg/day i.v., a dog) is “increased eosinophilic granules in the proximal tubules in the kidney”. In addition, the subacute toxicity findings result with beagles [6] (0.5, 5.0 and 50.0 mg/kg/day i.v.) was “normal findings”. The chronic toxicity findings entry in the data set on rat [7] is on record as “No significant changes were found”. In addition, in the data set on beagles [8], the “Kupffer cells in the liver” value was “increased number of Kuppfer cells in the liver”. In addition, the “lysosomes, electron microscopy” value in the data set with beagles [8] is reported as “increase in lysosomes”. Also, the “mesangial cells in the renal glomeruli” value in the data set with beagles [8] is given as “lysosomal increase in the mesangeal cells in the renal glomeruli”. The “kidney proximal tubules, light microscopy” value in the data set with beagles [8] (only this dose) is “increased eosinophilic granules in the proximal tubules in the kidney”. The “changes in the embryo, the fetus or the neonate” value in the data set with rat [9] was “no significant changes in the embryo, the fetus or the neonate”; in the data set with mouse, “no significant changes in the embryo, the fetus or the neonate”; with rabbit it was “no significant changes in the embryo, the fetus or the neonate”. Moreover, the “edema and redness of the skin” value with animals (50 mg/kg/day, on rare occasions) is “transient edema and redness of the skin”. Also, in the data set on animals (disappears after discontinuing the administration), the red urine entry is recorded as “Red urine may be found, but it soon disappears”. In [10], the light sensitivity result was “light-sensitive, and is easily degraded into hydoxycobalamin”. Further, the “half life in the blood level” value in data set [11] is given as “longer half life in the blood level”.

As for `Nc1nc2ccc(OC(F)(F)F)cc2s1` [riluzole], the “prolongation of life without tracheostomy” value with patients with ALS [1] (a subgroup of ALS) is recorded as 1-3 months.

Take IGF-1: insulin-like growth factor-1: the “beneficial effects in ALS” value with patients with ALS [1] is “beneficial effects”.

Turning to superoxide dismutase, in the data set on patients with ALS [1], the “potency” value is reported as “not yet convincingly shown their potency”.

For the molecule vitamin E, the “potency” value in the data set with patients with ALS [1] is listed as “not yet convincingly shown their potency”.

B1: ciliary neurotrophic factor: ciliary neurotrophic factor (protein, UniProt P26441 1-200, looked up)
Ciliary neurotrophic factor: MAFTEHSPLTPHRRDLCSRSIWLARKIRSDLTALTESYVKHQGLNKNINLDSADGMPVASTDQWSELTEAERLQENLQAYRTFHVLLARLLEDQQVHFTPTEGDFHQAIHTLLLQVAAFAYQIEELMILLEYKIPRNEADGMPINVGDGGLFEKKLWGLKVLQELSQWTVRSIHDLRFISSHQTGIPARGSHYIANNKKM
Regarding B1, the “potency” value with patients with ALS [1] is reported as “not yet convincingly shown their potency”.
